In patent US4482554A, “Pharmaceutical compositions containing oxicam derivatives and process for their preparation” (Warner-Lambert Company, priority 1982, dated 1984):
Where a name gives a salt, the structure may show the parent alone. Read-outs that look alike come from different tables or passages of the source.

Columns and labels:
[1] = stability of solutions / precipitation of active material on storage; type: physicochemical
From the text: Especially in the case of oxicam derivatives of general formula (I), there is, in addition, the serious problem of instability of their solutions. Even when such compounds or the salts thereof have been brought into solution, these show a strong tendency, even after a relatively short time, to deposit particles and again to precipitate out a part of the active material. For injection solutions, this is naturally not acceptable.
There are thereby unexpectedly obtained, which was not to have been foreseen by the expert, highly concentrated solutions with a content of up to 30% and preferably of 10 to 20%, referred to the amount of active material used, which, even after storage for 15 months, display no deposition of active material. It is most surprising that this stability is fully retained even at low temperatures.

[2] = solubility in water of stoichiometric oxicam salts; type: physicochemical

Cc1cc(NC(=O)C2=C(O)c3ccccc3S(=O)(=O)N2C)no1
dependence of degree of precipitation on concentration ([1]; salt solution, over wide ranges): not dependent upon the concentration
stability of the solution ([1]; stoichiometric salts, precipitation of active material): unstable and again precipitate out considerable amounts of active material
solubility ([2]; stoichiometric salt with methylglucamine, per milliliter of solution, read-out: active material per milliliter of solution): 49 mg/mL

Cc1cc(NC(=O)C2=C(O)c3ccccc3S(=O)(=O)N2C)no1 [potassium salts]
solubility in water after storage ([2]; after 4 months, decreased by precipitation from the solution, 175200 min): 20 mg/mL
solubility in water, initial ([2]; shortly after preparation): about 30 mg/ml

Cc1cc(NC(=O)C2=C(O)c3ccccc3S(=O)(=O)N2C)no1 [sodium salts of isoxicam]
solubility ([2]; shortly after preparation, read-out: solubility in water, initial): ~24 mg/mL
